The source of these data is patent US4485109A, “4-Aryl-4-piperidinecarbinols” (E. I. Du Pont de Nemours and Company, priority 1983, dated 1984).

For orientation: ED50 means the dose at which the effect has come halfway, by size or by number of responders.

The test system of the assay is tetrabenazine-induced depression. Nature of the assay: Antagonism (prevention) of tetrabenazine-induced sedation and depression in mice, orally. The note with it: Mus musculus, 1 h, tetrabenazine 32 mg/kg i.p. 30 min after compound. In kind it is in vivo, mice (Carworth CF1 S female). The source says:
A standard procedure for detecting and comparing the antidepressant activity of the compounds of this invention, for which there is good correlation with human efficacy, is the prevention of tetrabenazine-induced sedation and depression in mice. (Everett, "The Dopa Response Potentiation Test and Its Use in Screening for Antidepressant Drugs", pp. 164-167 in Antidepressant Drugs [Proceedings of the First International Symposium], S. Garattini and M. N. G. Dukes (editors), 1967).
Groups of 10 Carworth CF1 S female mice, 18-21 g each, each fasted 1.5 h and were intubated with antagonist compounds at oral doses, such as 0, 1, 3, 9, 27 and 81 mg/kg in 0.20 mL of 1% Methocel® (methylcellulose).The mice were challenged 30 minutes later with tetrabenazine (as the methanesulfonate), 32 mg/kg intraperitoneally (dissolved in 0.20 mL 0.05% aqueous KCl at pH 2.0). One hour after administration of antagonist (30 minutes after administration of tetrabenazine) the mice were examined for signs of exploratory activity and ptosis (eye lid closure). Normal exploratory activity (relief from sedation) was recorded when a mouse, lifted by the tail from a group of 10 in a testing box and placed on a stainless steel testing box lid (12.5 inch (31.8 cm) by 8 inch (20.3 cm) with 0.33 inch mesh), either turned its head horizontally 30° in both directions or moved to the edge of the screen within 10 seconds after being placed on the screen. Relief from ptosis was recorded when, at exactly two seconds after placing the mouse facing the observer, lid closure was less than 50% in both eyes.

Setting [1] is: po, read-out: ORAL ED50 for prevention of exploratory loss, mice, oral, at one hour post-drug.
The mark [2] stands for this setting: po, read-out: ORAL ED50 for prevention of ptosis, mice, oral, at one hour post-drug.

Where two headings read alike, the source gives them in different places.

In the case of `Cc1ccccc1C1(C(C)(C)O)CCN(C)CC1` [Example 9, 4-(2'-Tolyl)-α,α,1-trimethyl-4-piperidinemethanol], the ED50 under setting [1] was 0.48 mg/kg and the ED50 under setting [2] was found to be 0.33 mg/kg.

Consider `COc1cccc(C2(C3(O)CCCC3)CCN(Cc3ccccc3)CC2)c1OC` [Example 38, 1-[1'-Benzyl-4'-(2",3"-dimethoxyphenyl)-4'-piperidinyl]cyclopentanol], for which the ED50 under setting [1] was above 81 mg/kg and the ED50 under setting [2] is above 81 mg/kg.

Take `CN(C)CCC=C1c2ccccc2CCc2ccccc21` [Amtriptyline, reference compound]: the ED50 (mice, oral, at one hour post-drug, read-out: ORAL ED50 for prevention of exploratory loss) came out at 2.7 mg/kg and the ED50 (mice, oral, at one hour post-drug, read-out: ORAL ED50 for prevention of ptosis) was 0.7 mg/kg.

Consider `COc1cccc(C2(C3(O)CCCCC3)CCN(C)CC2)c1OC` [Example 23, 1-[1'-Methyl-4'-(2",3"-dimethoxyphenyl)-4'-piperidinyl]cyclohexanol], for which the 50% effective dose (ED50) under setting [1] is 38 mg/kg and the ED50 under setting [2] is 17 mg/kg.

Take `COc1cccc(C2(C3(O)CCCCCCC3)CCN(C)CC2)c1` [Example 28, 1-[1'-Methyl-4'-(3"-methoxyphenyl)-4'-piperidinyl]cyclooctanol]: the ED50 under setting [1] stood at 3.8 mg/kg and the ED50 under setting [2] is 1.7 mg/kg.

As to `COc1cccc(C2(C3(O)CCC3)CCN(C)CC2)c1` [Example 22, 1-[1'-Methyl-4'-(3"-methoxyphenyl)-4'-piperidinyl]cyclobutanol], the median effective dose (ED50) under setting [1] amounted to 0.92 mg/kg and the median effective dose (ED50) under setting [2] was found to be 0.67 mg/kg.

On to `CN1CCC(c2ccccc2)(C(C)(C)O)CC1` [Example 1, 4-Phenyl-α,α,1-trimethyl-4-piperidinemethanol], for which the ED50 reads like this: under setting [1], 5.6 mg/kg; under setting [2], 0.78 mg/kg.

As for `Cc1cccc(C2(C(C)(C)O)CCN(C)C(C)C2)c1` (stereo not drawn) [Example 44, 4-(3'-Tolyl)-α,α,1,2-tetramethyl-4-piperidinemethanol], the ED50 by setting is: under setting [1], 0.33 mg/kg; under setting [2], 0.33 mg/kg.

For the molecule `COc1cccc(C2(C3(O)CCCCCC3)CCN(C)CC2)c1` [Example 27, 1-[1'-Methyl-4'-(3"-methoxyphenyl)-4'-piperidinyl]cycloheptanol], the ED50 reads like this: under setting [1], 1.4 mg/kg; under setting [2], 0.9 mg/kg.

For the molecule `CSc1ccc(C2(C(C)(C)O)CCN(C)CC2)cc1` [Example 21, 4-(4'-Methylthiophenyl)-α,α,1-trimethyl-4-piperidinemethanol], the median effective dose (ED50) is, setting by setting: under setting [1], 1.3 mg/kg; under setting [2], 1.3 mg/kg.

Turning to `CN1CCC(c2ccc(F)cc2)(C(C)(C)O)CC1` [Example 5, 4-(4'-Fluorophenyl)-α,α,1-trimethyl-4-piperidinemethanol], the ED50 under setting [1] is 0.48 mg/kg and the 50% effective dose (ED50) under setting [2] was determined as 0.33 mg/kg.

`CC1CCC(O)(C2(c3cccc(C(F)(F)F)c3)CCN(C)CC2)C1` (racemic) [Example 46, (±)-cis and trans-3-Methyl-1-[1'-methyl-4'-(3"-trifluoromethylphenyl)-4'-piperidinyl]cyclopentanol]: the ED50 is below 1 mg/kg under setting [1] and below 1 mg/kg under setting [2].

Take `COc1cccc(C2(C(C)(C)O)CCNCC2)c1` [Example 14, 4-(3'-Methoxyphenyl)-α,α-dimethyl-4-piperidinemethanol]: the ED50 stood at 4.4 mg/kg under setting [1] and 2.7 mg/kg under setting [2].

For `CN1CCC(c2cccn2C)(C(C)(C)O)CC1` [Example 24, 4-(1'-Methyl-2'-pyrrolyl)-α,α,1-trimethyl-4-piperidinemethanol], the ED50 is 1.2 mg/kg under setting [1] and 0.78 mg/kg under setting [2].

For the molecule `CN1CCC(c2cccnc2)(C(C)(C)O)CC1` [Example 26, 4-(3'-Pyridyl)-α,α,1-trimethyl-4-piperidinemethanol], the 50% effective dose (ED50) by setting is: under setting [1], 29 mg/kg; under setting [2], 18 mg/kg.

On to `CCOc1cccc(C2(C(C)(C)O)CCN(C)CC2)c1` [Example 40, 4-(3'-Ethoxyphenyl)-α,α,1-trimethyl-4-piperidinemethanol], for which the 50% effective dose (ED50) runs as follows: under setting [1], 0.9 mg/kg; under setting [2], 0.9 mg/kg.

With `CN1CCC(c2cccc(-c3ccccc3)c2)(C(C)(C)O)CC1` [Example 36, 4-(3'-Biphenylyl)-α,α,1-trimethyl-4-piperidinemethanol], the ED50 runs as follows: under setting [1], 1.1 mg/kg; under setting [2], 0.66 mg/kg.

For the molecule `CC(C)(O)C1(c2cccc(C(F)(F)F)c2)CCN2CCCC2C1` (stereo not drawn) [Example 45, 7-(3'-Trifluoromethylphenyl)-α,α-dimethyl-7-indolizidinemethano], the median effective dose (ED50) was below 0.33 mg/kg under setting [1] and 0.48 mg/kg under setting [2].

As for `Cc1ccc(C2(C(C)(C)O)CCN(C)CC2)cc1` [Example 11, 4-(4'-Tolyl)-α,α,1-trimethyl-4-piperidinemethanol], the ED50 under setting [1] is 0.69 mg/kg and the median effective dose (ED50) under setting [2] was found to be 0.57 mg/kg.

Consider `COc1cccc(C2(C(C)(C)O)CCN(C)CC2C)c1` (stereo not drawn) [Example 43, 4-(3'-Methoxyphenyl)-α,α,1,3-tetramethyl-4-piperidinemethanol], for which the 50% effective dose (ED50) under setting [1] came to 7.2 mg/kg and the median effective dose (ED50) under setting [2] was 5.8 mg/kg.

`CN(C)CCCN1c2ccccc2CCc2ccccc21` [Imipramine, reference compound]: the median effective dose (ED50) under setting [1] was found to be 2.2 mg/kg and the ED50 under setting [2] was 0.94 mg/kg.

Take `COc1ccccc1C1(C(C)(C)O)CCN(C)CC1` [Example 15, 4-(2'-Methoxyphenyl)-α,α,1-trimethyl-4-piperidinemethanol]: the ED50 reads like this: under setting [1], 2.3 mg/kg; under setting [2], 0.57 mg/kg.

In the case of `CN1CCC(c2ccc(N(C)C)cc2)(C(C)(C)O)CC1` [Example 33, 4-(4'-Dimethylaminophenyl)-α,α,1-trimethyl-4-piperidinemethanol], the median effective dose (ED50) reads like this: under setting [1], 0.78 mg/kg; under setting [2], 0.35 mg/kg.

For the molecule `COc1cccc(C2(C3(O)CCCCC3)CCN(C)CC2)c1` [Example 35, 1[1'-Methyl-4'-(3"-methoxyphenyl)-4'-piperidine]cyclohexanol], the ED50 under setting [1] is 1.4 mg/kg and the ED50 under setting [2] was 1.1 mg/kg.

Turning to `CN1CCC(c2ccc(-c3ccccc3)cc2)(C(C)(C)O)CC1` [Example 42, 4-(4'-Biphenylyl)-α,α,1-trimethyl-4-piperidinemethanol], the ED50 by setting is: under setting [1], 1.5 mg/kg; under setting [2], 1 mg/kg.

In the case of `COc1ccc(C2(C(C)(C)O)CCN(C)CC2)cc1` [Example 19, 4-(4'-Methoxyphenyl)-α,α,1-trimethyl-4-piperidinemethanol], the ED50 reads like this: under setting [1], 1.1 mg/kg; under setting [2], 0.33 mg/kg.

Turning to `COc1ccc(OC)c(C2(C(C)(C)O)CCN(C)CC2)c1` [Example 29, 4-(2',5'-Dimethoxyphenyl)-α,α,1-trimethyl-4-piperidinemethanol], the ED50 is 0.99 mg/kg under setting [1] and 0.86 mg/kg under setting [2].

For `COc1cccc(C2(C3(O)CCCC3)CCN(C)CC2)c1OC` [Example 3, 1-[1'-Methyl-4'-(2",3"-dimethoxyphenyl)-4'-piperidinyl]cyclopentanol], the ED50 under setting [1] worked out at 14 mg/kg and the median effective dose (ED50) under setting [2] came to 2.8 mg/kg.

As to `COc1cccc(C2(C3(O)CCCC3)CCN(C)CC2)c1` [Example 34, 1[1'-Methyl-4'-(3"-methoxyphenyl)-4'-piperidine]cyclopentanol], the ED50 runs as follows: under setting [1], 0.48 mg/kg; under setting [2], 0.45 mg/kg.

On to `Cc1ccc(C2(C(C)(C)O)CCN(C)CC2)cc1C` [Example 13, 4-(4'-o-Xylyl)-α,α,1-trimethyl-4-piperidinemethanol], for which the ED50 reads like this: under setting [1], 0.3 mg/kg; under setting [2], 0.23 mg/kg.

Consider `Cc1ccc(C2(C(C)(C)O)CCN(C)CC2)s1` [Example 25, 4-(5'-Methyl-2'-thienyl)-α,α,1-trimethyl-4-piperidinemethanol], for which the 50% effective dose (ED50) by setting is: under setting [1], 0.99 mg/kg; under setting [2], 0.69 mg/kg.

For the molecule `COc1cccc(C2(C(C)(C)O)CCN(C)CC2)c1OC` [Example 20, 4-(2',3'-Dimethoxyphenyl)-α,α,1-trimethyl-4-piperidinemethanol], the median effective dose (ED50) under setting [1] was 4.6 mg/kg and the 50% effective dose (ED50) under setting [2] amounted to 2.1 mg/kg.

Consider `CCC(O)(CC)C1(c2cccc(OC)c2)CCN(C)CC1` [Example 18, 4-(3'-Methoxyphenyl)-α,α-diethyl-1-methyl-4-piperidinemethanol], for which the ED50 is 0.71 mg/kg under setting [1] and 0.71 mg/kg under setting [2].

As to `Cc1cc(C)cc(C2(C(C)(C)O)CCN(C)CC2)c1` [Example 12, 4-(5'-m-Xylyl)-α,α,1-trimethyl-4-piperidinemethanol], the 50% effective dose (ED50) came out at 0.11 mg/kg under setting [1] and 0.064 mg/kg under setting [2].

As to `CC1CCC(O)(C2(c3cccc(C(F)(F)F)c3)CCN(C)CC2)C1` (single isomer, unassigned; (-)) [Example 47, (-)-cis and trans-3-Methyl-1-[1'-methyl-4'-(3"-trifluoromethylphenyl)-4'-piperidinyl]cyclopentanol], the median effective dose (ED50) under setting [1] is below 1 mg/kg and the ED50 under setting [2] was below 1 mg/kg.
